Two compounds from article PMC12735921, “Evaluation of Antiproliferative Activity and Molecular Modeling Studies of Some Novel Benzimidazolone-Bridged Hybrid Compounds” (Pharmaceuticals, 2025) can be followed below.

For orientation: IC50 means the concentration needed to halve the response being measured.

Common to all, as to type: cell-based, human
The test system of assay [1] is A549 cells. Description: Total oxidative status (TOS), A549. As to conditions: A549, IC50 concentration of compound, 48 h; H2O2 250 µM positive control; mean ± SD, n = 3. Here is the method: (§1) TOS were evaluated using a commercially available kit (Rel Assay Diagnostics®, Gaziantep, Turkey) according to the manufacturer’s instructions. […] The TOS assay quantifies oxidizing agents based on their ability to convert an iron (II) ion chelator complex to iron (III) ions. The results were calibrated against hydrogen peroxide (H2O2, 250 µM) as a positive control for 48 h and expressed as µmol H2O2 equivalents per liter. The analysis was performed in three independent biological replicates (n = 3).

In assay [2] the test system is A549 cells. The experiment in a line: Intracellular GSH/GSSG ratio, A549. As to conditions: A549, IC50 concentration of compound, 48 h; H2O2 positive control; mean ± SD, n = 3. The method, then: (§2) Intracellular reduced (GSH) and oxidized (GSSG) glutathione levels were measured using the GSH/GSSG Ratio Detection Assay Kit (Cayman Chemical, Ann Arbor, MI, USA, Cat. No: 703002) according to the manufacturer’s protocol. […] After treatment, cells were washed with cold PBS and lysed with MES buffer provided in the kit.
(§3) To prevent oxidation of GSH to GSSG during processing, samples were deproteinized using the supplied metaphosphoric acid solution and neutralized accordingly. Total glutathione and GSSG levels were measured separately by adding the appropriate buffers and reagents to the wells of a 96-well plate, followed by the addition of DTNB recycling reagent and glutathione reductase. Absorbance was read at 405 nm using a microplate reader (BMG Labtech, Germany). The amount of GSH was calculated by subtracting 2 × GSSG from the total glutathione, and the GSH/GSSG ratio was used to assess intracellular redox status.

For assay [3], the system named is MCF-7 cells. Description: MTT cell viability assay, MCF-7. The following applies: for IC50: Homo sapiens, MCF7, MTT, 48 h, mean ± SD, n = 3; for MCF-7 Selectivity Index (SI): SI = IC50 (HEK 293)/IC50 (MCF-7). The method, then:
(§4) Cell viability assay was performed on the human lung cancer (A549) (ATCC CCL-185), human breast cancer (MCF-7) (ATCC-HTB-22), cervical cancer (HeLa) (ATCC-CCL-2), and human embryonic kidney 293 (HEK293) (ATCC-CRL-1573) cell lines, which were purchased from Deutsche Sammlung von Mikroorganismen und Zellkulturen (DSMZ, Braunschweig, Germany). The cells were maintained in Dulbecco’s modified Eagle’s medium (DMEM), supplemented with 10% fetal bovine serum (FBS), 2 mM L-glutamine, 100 U/mL penicillin, and 100 mg/L streptomycin (Biochrom AG, Berlin, Germany) at 37 °C in a humidified atmosphere of 5% CO2.
(§5) The cytotoxic effect was determined by the MTT (3-(4,5-dimethyl-2-thiazolyl)-2,5-diphenyl-2H-tetrazolium bromide) cell viability assay. Cells were seeded at an initial concentration of 1 × 10^5 cells/mL in 96-well microplates. Cells were then treated with different concentrations (0.5, 5, 10, 25, 50, 100 and 200 µM) of the novel synthesized compounds for 48 h. After the incubation period, the formed formazan crystals were dissolved in dimethyl sulfoxide (DMSO), and the optical density (OD) of the compounds was measured at 570 nm using a spectrophotometer (BMG Labtech, Ortenberg, Germany). Cytotoxicity was expressed as an increase in the mean percentage of cytotoxicity relative to the unexposed control ± standard deviation (SD). […] Control values were set at 0% cytotoxicity. IC50 was calculated by fitting the data to a sigmoidal curve using a four-parameter logistic model and was presented as an average of three independent measurements. […] Doxorubicin was used as a positive control. Each sample was tested in triplicate.
(§6) To evaluate the selectivity of the tested compound(s) toward cancer cells over normal cells, the Selectivity Index (SI) was calculated using the following formula:SI = IC50 (normal cells)/IC50 (cancer cells)
(§7) An SI value greater than 2 was considered to indicate selective cytotoxicity, while values below 2 were interpreted as non-selective. Higher SI values reflect greater therapeutic potential due to reduced toxicity toward normal cells.
A general note: Tetrazolium assays rely on reduction of a dye to a coloured formazan, in cell work by metabolically active cells.

The subject of the next assay is HEK 293 cells. The experiment in a line: MTT cell viability assay, non-cancerous HEK 293. As to conditions: Homo sapiens, HEK293, 48 h, mean ± SD, n = 3. Here is the method:
as §4
The cytotoxic effect was determined by the MTT (3-(4,5-dimethyl-2-thiazolyl)-2,5-diphenyl-2H-tetrazolium bromide) cell viability assay. Cells were seeded at an initial concentration of 1 × 10^5 cells/mL in 96-well microplates. Cells were then treated with different concentrations (0.5, 5, 10, 25, 50, 100 and 200 µM) of the novel synthesized compounds for 48 h. After the incubation period, the formed formazan crystals were dissolved in dimethyl sulfoxide (DMSO), and the optical density (OD) of the compounds was measured at 570 nm using a spectrophotometer (BMG Labtech, Ortenberg, Germany). Cytotoxicity was expressed as an increase in the mean percentage of cytotoxicity relative to the unexposed control ± standard deviation (SD). […] Control values were set at 0% cytotoxicity. IC50 was calculated by fitting the data to a sigmoidal curve using a four-parameter logistic model and was presented as an average of three independent measurements. […] Each sample was tested in triplicate.

Assay [4] concerns A549 cells. Description: MTT cell viability assay, A549. As to conditions: for IC50: Homo sapiens, A549, MTT, 48 h, mean ± SD, n = 3; for A549 Selectivity Index (SI): SI = IC50 (HEK 293)/IC50 (A549). Here is the method:
as §4, §5, §6, §7

Assay [5] concerns A549 cells. Description: LDH leakage assay, A549. As to conditions: A549, IC50 concentration of compound, 48 h; H2O2 positive control; mean ± SD, n = 3. Here is the method: (§8) One hundred microliters of culture medium was transferred to a new 96-well plate. One hundred microliters of LDH reaction solution was added to each well, and absorbance was measured at 490 nm using an ELISA plate reader (BMG Labtech, Ortenberg, Germany) after 30 min.
Background: Release of lactate dehydrogenase indicates damage to the cell membrane.

For assay [6], the system named is HeLa cells. Description: MTT cell viability assay, HeLa. The following applies: for IC50: Homo sapiens, HeLa, MTT, 48 h, mean ± SD, n = 3; for HeLa Selectivity Index (SI): SI = IC50 (HEK 293)/IC50 (HeLa). The method, then:
as §4, §5, §6, §7

Assay [7] concerns A549 cells. The experiment in a line: Cell cycle analysis (PI staining, flow cytometry), A549. The following applies: A549, IC50 concentration, 48 h, mean ± SEM, n = 3. The method, then:
(§9) Cell cycle distribution was assessed by propidium iodide (PI) staining and flow cytometry. HeLa, MCF-7, and A549 cells were seeded in 6-well plates at a density of 1 × 10^5 cells per well and allowed to attach overnight. […] Following exposure, both adherent and floating cells were collected, washed twice with cold phosphate-buffered saline (PBS, pH 7.4), and fixed overnight in 70% cold ethanol at 4 °C. After fixation, the cells were centrifuged and resuspended in 500 µL of PI/RNase staining solution containing 50 µg/mL PI and 100 µg/mL RNase A (Sigma-Aldrich®, St. Louis, MO, USA), followed by incubation in the dark for 30 min at 37 °C. The stained samples were analyzed using a Muse™ Cell Analyzer (Merck, Millipore, Germany) equipped with a 488 nm excitation laser and a 617 nm emission filter. A minimum of 10,000 events per sample were acquired after exclusion of debris and doublets via FSC-A vs. FSC-H gating. The DNA content histograms were generated automatically, and cell populations were expressed as percentages of G0/G1, S, and G2/M phases using the Muse™ Cell Cycle Analysis Software 1.5.0.0. All assays were conducted in triplicate biological repeats (n = 3), and results were reported as mean ± SEM.
In general terms: A flow cytometer gives signals particle by particle.

For assay [8], the system named is HeLa cells. The experiment in a line: Intracellular GSH/GSSG ratio, HeLa. As to conditions: IC50 concentration of compound, 48 h, H2O2 positive control, mean ± SD, n = 3. Here is the method: as §2, §3
In assay [9] the test system is MCF-7 cells. The experiment in a line: Cell cycle analysis (PI staining, flow cytometry), MCF-7. The following applies: MCF-7, IC50 concentration, 48 h, mean ± SEM, n = 3. Here is the method: as §9
Assay [10] has as its system HeLa cells. The experiment in a line: LDH leakage assay, HeLa. The following applies: IC50 concentration of compound, 48 h, H2O2 positive control, mean ± SD, n = 3. The method, then: as §8
The test system of assay [11] is MCF-7 cells. Description: Intracellular GSH/GSSG ratio, MCF-7. As to conditions: MCF-7, IC50 concentration of compound, 48 h; H2O2 positive control; mean ± SD, n = 3. The method, then:
as §2, §3

The subject of assay [12] is MCF-7 cells. Description: Total oxidative status (TOS), MCF-7. As to conditions: MCF-7, IC50 concentration of compound, 48 h; H2O2 250 µM positive control; mean ± SD, n = 3. Here is the method:
as §1

Assay [13] concerns HeLa cells. The experiment in a line: Cell cycle analysis (PI staining, flow cytometry), HeLa. As to conditions: IC50 concentration, 48 h, mean ± SEM, n = 3. The method, then:
as §9

For assay [14], the system named is MCF-7 cells. Description: LDH leakage assay, MCF-7. As to conditions: MCF-7, IC50 concentration of compound, 48 h; H2O2 positive control; mean ± SD, n = 3. Here is the method: as §8
Assay [15] deals with HeLa cells. Description: Total oxidative status (TOS), HeLa. As to conditions: IC50 concentration of compound, 48 h, H2O2 250 µM positive control, mean ± SD, n = 3. The method, then:
as §1

Structures are written as SMILES. Several values for one entry are separate records, joined by “and”; a condition that tells them apart may be missing. Equal entries are not always repeated.

With `O=c1[nH]c2cc(Cl)c(Cl)cc2[nH]1` [Compound 1, 5,6-Dichloro-1,3-dihydro-2H-benzimidazol-2-one], the TOS with A549 cells [1] is 6.1 ± 0.4 µmol H2O2 eq/L and 6.1 ± 0.4 ^a,b µmol H2O2 eq/L. Further, the GSH/GSSG in the assay with A549 cells [2] is 13.5 ± 1.3 nmol/mg Protein and 13.5 ± 1.3 ^a,b nmol/mg Protein. Also, in the assay on MCF-7 cells [3], 41.3 ± 2.4 µM corresponded to half-maximal inhibition (IC50) and the “MCF-7 Selectivity Index (SI)” value is given as 1.46. The IC50 in the assay on HEK 293 cells stood at 60.1 ± 3.47 µM. In the assay with A549 cells [4], inhibition was half-maximal at 29.5 ± 1.7 µM (IC50) and the “A549 Selectivity Index (SI)” value is 2.03. Further, the LDH in the assay with A549 cells [5] was 19.8 ± 1.7 µU/mL and 19.8 ± 1.7 ^a,b µU/mL. In the assay on HeLa cells [6], 31.6 ± 1.82 µM corresponded to half-maximal inhibition (IC50) and the “HeLa Selectivity Index (SI)” value amounted to 1.9. In the assay on A549 cells [7], the “cells in G0/G1 phase” value is 57.2 ± 1.9%, the “cells in G2/M phase” value stood at 20.1 ± 1.5% and the “cells in S phase” value is recorded as 22.7 ± 1.5%.
As to `O=c1n(Cc2nnc(S)o2)c2cc(Cl)c(Cl)cc2n1Cc1nnc(S)o1` [Compound 7, 5,6-Dichloro-1,3-bis((5-mercapto-1,3,4-oxadiazol-2-yl)methyl)-1H-benzo[d]imidazol-2(3H)-one], the GSH/GSSG is 9.4 ± 1.0 in the assay with HeLa cells [8]; 11.3 ± 1.0 nmol/mg Protein and 11.3 ± 1.0 ^a,b nmol/mg Protein with MCF-7 cells [11]. In addition, the results for the “cells in G0/G1 phase” value in the assay on MCF-7 cells [9] and with HeLa cells [13] were 69.0 ± 2.0% and 38.4 ± 2.1%, respectively. Besides, the “cells in G2/M phase” value in the assay on MCF-7 cells [9] is given as 13.8 ± 1.2%; in the assay on HeLa cells [13], 38.4 ± 1.9%. The “cells in S phase” value in the assay on MCF-7 cells [9] is on record as 17.2 ± 1.3%; in the assay on HeLa cells [13] it was 23.2 ± 1.5%. Besides, the LDH with HeLa cells [10] is 30.9 ± 2.7 µU/mL and 30.9 ± 2.7 ^a,b µU/mL; in the assay with MCF-7 cells [14] it was 25.3 ± 2.0 µU/mL and 25.3 ± 2.0 ^a,b µU/mL. Besides, the IC50 in the assay on MCF-7 cells [3] is 19.1 ± 1.1 µM; with HEK 293 cells, 38.5 ± 2.2 µM; in the assay on A549 cells [4], 27.4 ± 1.58 µM; in the assay on HeLa cells [6] it was 10.6 ± 0.61 µM. The “MCF-7 Selectivity Index (SI)” value in the assay with MCF-7 cells [3] is on record as 2.01. The “A549 Selectivity Index (SI)” value in the assay with A549 cells [4] turned out to be 1.4. Besides, the TOS in the assay on MCF-7 cells [12] is 7.6 ± 0.6 µmol H2O2 eq/L and 7.6 ± 0.6 ^a,b µmol H2O2 eq/L; with HeLa cells [15], 8.6 ± 0.7 µmol H2O2 eq/L and 8.6 ± 0.7 ^a,b µmol H2O2 eq/L. For the same compound, the “HeLa Selectivity Index (SI)” value in the assay with HeLa cells [6] is reported as 3.63.
